The test system of one assay is C. krusei. Description: Antifungal Activity Assay (broth microtiter MIC), C. krusei. As to conditions: Pichia kudriavzevii, ATCC6258, 48 h, ATCC 6258, 3 replicates, MIC recorded at 48 h, read-out: MIC, C. krusei ATCC 6258. It is filed as cell-based, Candida krusei. In a few lines: (§1)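 Endpoint: lowest concentration visibly inhibiting growth relative to control after 48 h. Inoculum of 2.5×10^3 CFU/mL final in RPMI 1640+MOPS, prepared from overnight 35° C agar cultures; test compounds diluted in water to 128 μg/mL before plating.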

In assay [1] the test system is Fusarium moniliforme (Fm). Description: Growth inhibition assay of fungal pathogens, Fm. It is filed as cell-based. As to conditions: Fusarium verticillioides, 48 h, Fusarium moniliforme; growth inhibition at 48 hours vs 2% DMSO control; read-out: Concentration at 90% Inhibition Fm. As for the experimental part:
(§2) Compounds of the present invention were evaluated in a growth inhibition assay to determine the ability to control the growth of fungal pathogens, such as Botrtyis cinerea (Bc), Collectotrichum graminicola (Cg), Diplodia maydis (Dm), Fusarium moniliforme (Fm), Fusarium virguliforme (Fv), Phytophthora capsici (Pc), Rhizoctonia solani (Rs), and Septoria tritici (St).
(§3) Compounds to be tested were dissolved in DMSO at 2.5 mg/ml to produce compound stock solutions (“stocks”). Stocks were diluted with DMSO by a five-fold dilution in a 96-well stock plate, and two sets of final concentrations of 50, 10, and 2 ppm or 2, 0.4, and 0.08 ppm were obtained in vitro. A set of positive controls was also prepared, with various concentrations of Soraphen (2, 0.4, and 0.08 ppm), Metalaxyl (1.1, 0.22, and 0.04 ppm), and Metconazole (2, 0.4, and 0.08 ppm or 0.2, 0.04, and 0.008 ppm) after the five-fold dilutions. Negative controls on each plate included 2% DMSO, water, and a blank (media+2% DMSO).
(§4) Fungal spores were isolated from previously sub-cultured plates of Botrtyis cinerea (Bc), Collectotrichum graminicola (Cg), Diplodia maydis (Dm), Fusarium moniliforme (Fm), Fusarium virguliforme (Fv), Phytophthora capsici (Pc), and Septoria tritici (St). The isolated spores were diluted to individual concentrations with a 17% V8 liquid media. For Rhizoctonia solani (Rs) and Pythium irregulare, 1.5 mm mycelial plugs were used in place of spores and/4 Potato Dextrose Broth (PDB) was used for dilution. The spore concentrations and plug sizes were based on growth curves generated at 48 hours for each pathogen.
(§5) In a second 96-well plate, the spores or mycelial plugs, media, diluted compound solutions, and controls were combined. Once the compound was added, a true final concentration of compound in each well was measured by an OD600 reading, which adjusted for any compound precipitation that might have occurred in the well. Plate readings were repeated at both 24 and 48 hours. The blank negative control was used as a background subtraction. Additional visual ratings were performed at both 24 and 48 hours for checking on precipitation and confirming efficacy. Visual and OD600 ratings of the compounds at 48 hours were compared to the 2% DMSO negative control, and the percent of pathogen growth inhibition was determined based on those values.

The subject of assay [2] is Phytophthora capsici (Pc). Description: Growth inhibition assay of fungal pathogens, Pc. As to conditions: 48 h, growth inhibition at 48 hours vs 2% DMSO control, read-out: Concentration at 90% Inhibition Pc. It is filed as cell-based. As for the experimental part: as §2, §3, §4, §5
A further assay deals with Septoria tritici (St). Nature of the assay: Growth inhibition assay of fungal pathogens, St. Format: cell-based. As to conditions: Zymoseptoria tritici, 48 h, Septoria tritici; growth inhibition at 48 hours vs 2% DMSO control; read-out: Concentration at 90% Inhibition St. As for the experimental part:
as §2, §3, §4, §5

The next assay deals with C. parapsilosis. Nature of the assay: Antifungal Activity Assay (broth microtiter MIC), C. parapsilosis. It is filed as cell-based, Candida parapsilosis. To be noted: Lodderomyces parapsilosis, ATCC22019, 48 h, ATCC 22019, 3 replicates, MIC recorded at 48 h, read-out: MIC, C. parapsilosis ATCC 22019. In short, it runs like this:
as §1

Assay [3] relates to Fusarium virguliforme (Fv). Description: Growth inhibition assay of fungal pathogens, Fv. It is filed as cell-based. To be noted: 48 h, growth inhibition at 48 hours vs 2% DMSO control, read-out: Concentration at 90% Inhibition Fv. As for the experimental part: as §2, §3, §4, §5
The next assay deals with C. albicans. Description: Antifungal Activity Assay (broth microtiter MIC), C. albicans. It is filed as cell-based, Candida albicans. To be noted: Candida albicans, ATCC90028, 48 h, ATCC 90028, 3 replicates, MIC recorded at 48 h, read-out: MIC, C. albicans ATCC 90028. In a few lines:
as §1

The test system of another assay is Botrtyis cinerea (Bc). Description: Growth inhibition assay of fungal pathogens, Bc. It is filed as cell-based. To be noted: 48 h, Botrtyis cinerea; growth inhibition at 48 hours vs 2% DMSO control; read-out: Concentration at 90% Inhibition Bc. The method, then:
as §2, §3, §4, §5

Assay [4] concerns Collectotrichum graminicola (Cg). Description: Growth inhibition assay of fungal pathogens, Cg. To be noted: 48 h, Collectotrichum graminicola; growth inhibition at 48 hours vs 2% DMSO control; read-out: Concentration at 90% Inhibition Cg. Format: cell-based. As for the experimental part:
as §2, §3, §4, §5

A further assay deals with Rhizoctonia solani (Rs). Description: Growth inhibition assay of fungal pathogens, Rs. It is filed as cell-based. To be noted: 48 h, mycelial plugs, read-out: Concentration at 90% Inhibition Rs. The method, then:
as §2, §3, §4, §5

The target of the next assay is human (hACC2) (Homo sapiens, UniProt O00763). Description: In vitro ACC inhibition assay (ADP-Glo), hACC2. It is filed as biochemical. As to conditions: 5 nM ACC2, 20 μM ATP, 20 μM acetyl-CoA. As for the experimental part:
The detailed procedure is as follows. […] 10 μL ADP glo reagent was added. […] 20 μL kinase detection reagent was added.

The next assay relates to Diplodia maydis (Dm). Nature of the assay: Growth inhibition assay of fungal pathogens, Dm. As to conditions: Stenocarpella maydis, 48 h, Diplodia maydis; growth inhibition at 48 hours vs 2% DMSO control; read-out: Concentration at 90% Inhibition Dm. Format: cell-based. The method, then: as §2, §3, §4, §5
Another assay addresses fungal (fACC2) (UniProt Q00955). To be noted: read-out: fACC2 (in vitro ACC2 Inhibition Assay, IC50); Table 2b, additional results; ADP-Glo, 5 nM ACC2, 20 μM ATP, 20 μM acetyl-CoA. A general note: In ADP-Glo the light output rises with the ADP produced.
Setting [5] is: growth inhibition at 48 hours vs 2% DMSO control.
The mark [6] stands for this setting: growth inhibition vs 2% DMSO control at 48 hours.

Each structure is given as a SMILES string. Values after ≈ are worked out from the molar mass of the structure shown. Where two headings read alike, the source gives them in different places.

Chain of human (hACC2) (O00763 whole entry): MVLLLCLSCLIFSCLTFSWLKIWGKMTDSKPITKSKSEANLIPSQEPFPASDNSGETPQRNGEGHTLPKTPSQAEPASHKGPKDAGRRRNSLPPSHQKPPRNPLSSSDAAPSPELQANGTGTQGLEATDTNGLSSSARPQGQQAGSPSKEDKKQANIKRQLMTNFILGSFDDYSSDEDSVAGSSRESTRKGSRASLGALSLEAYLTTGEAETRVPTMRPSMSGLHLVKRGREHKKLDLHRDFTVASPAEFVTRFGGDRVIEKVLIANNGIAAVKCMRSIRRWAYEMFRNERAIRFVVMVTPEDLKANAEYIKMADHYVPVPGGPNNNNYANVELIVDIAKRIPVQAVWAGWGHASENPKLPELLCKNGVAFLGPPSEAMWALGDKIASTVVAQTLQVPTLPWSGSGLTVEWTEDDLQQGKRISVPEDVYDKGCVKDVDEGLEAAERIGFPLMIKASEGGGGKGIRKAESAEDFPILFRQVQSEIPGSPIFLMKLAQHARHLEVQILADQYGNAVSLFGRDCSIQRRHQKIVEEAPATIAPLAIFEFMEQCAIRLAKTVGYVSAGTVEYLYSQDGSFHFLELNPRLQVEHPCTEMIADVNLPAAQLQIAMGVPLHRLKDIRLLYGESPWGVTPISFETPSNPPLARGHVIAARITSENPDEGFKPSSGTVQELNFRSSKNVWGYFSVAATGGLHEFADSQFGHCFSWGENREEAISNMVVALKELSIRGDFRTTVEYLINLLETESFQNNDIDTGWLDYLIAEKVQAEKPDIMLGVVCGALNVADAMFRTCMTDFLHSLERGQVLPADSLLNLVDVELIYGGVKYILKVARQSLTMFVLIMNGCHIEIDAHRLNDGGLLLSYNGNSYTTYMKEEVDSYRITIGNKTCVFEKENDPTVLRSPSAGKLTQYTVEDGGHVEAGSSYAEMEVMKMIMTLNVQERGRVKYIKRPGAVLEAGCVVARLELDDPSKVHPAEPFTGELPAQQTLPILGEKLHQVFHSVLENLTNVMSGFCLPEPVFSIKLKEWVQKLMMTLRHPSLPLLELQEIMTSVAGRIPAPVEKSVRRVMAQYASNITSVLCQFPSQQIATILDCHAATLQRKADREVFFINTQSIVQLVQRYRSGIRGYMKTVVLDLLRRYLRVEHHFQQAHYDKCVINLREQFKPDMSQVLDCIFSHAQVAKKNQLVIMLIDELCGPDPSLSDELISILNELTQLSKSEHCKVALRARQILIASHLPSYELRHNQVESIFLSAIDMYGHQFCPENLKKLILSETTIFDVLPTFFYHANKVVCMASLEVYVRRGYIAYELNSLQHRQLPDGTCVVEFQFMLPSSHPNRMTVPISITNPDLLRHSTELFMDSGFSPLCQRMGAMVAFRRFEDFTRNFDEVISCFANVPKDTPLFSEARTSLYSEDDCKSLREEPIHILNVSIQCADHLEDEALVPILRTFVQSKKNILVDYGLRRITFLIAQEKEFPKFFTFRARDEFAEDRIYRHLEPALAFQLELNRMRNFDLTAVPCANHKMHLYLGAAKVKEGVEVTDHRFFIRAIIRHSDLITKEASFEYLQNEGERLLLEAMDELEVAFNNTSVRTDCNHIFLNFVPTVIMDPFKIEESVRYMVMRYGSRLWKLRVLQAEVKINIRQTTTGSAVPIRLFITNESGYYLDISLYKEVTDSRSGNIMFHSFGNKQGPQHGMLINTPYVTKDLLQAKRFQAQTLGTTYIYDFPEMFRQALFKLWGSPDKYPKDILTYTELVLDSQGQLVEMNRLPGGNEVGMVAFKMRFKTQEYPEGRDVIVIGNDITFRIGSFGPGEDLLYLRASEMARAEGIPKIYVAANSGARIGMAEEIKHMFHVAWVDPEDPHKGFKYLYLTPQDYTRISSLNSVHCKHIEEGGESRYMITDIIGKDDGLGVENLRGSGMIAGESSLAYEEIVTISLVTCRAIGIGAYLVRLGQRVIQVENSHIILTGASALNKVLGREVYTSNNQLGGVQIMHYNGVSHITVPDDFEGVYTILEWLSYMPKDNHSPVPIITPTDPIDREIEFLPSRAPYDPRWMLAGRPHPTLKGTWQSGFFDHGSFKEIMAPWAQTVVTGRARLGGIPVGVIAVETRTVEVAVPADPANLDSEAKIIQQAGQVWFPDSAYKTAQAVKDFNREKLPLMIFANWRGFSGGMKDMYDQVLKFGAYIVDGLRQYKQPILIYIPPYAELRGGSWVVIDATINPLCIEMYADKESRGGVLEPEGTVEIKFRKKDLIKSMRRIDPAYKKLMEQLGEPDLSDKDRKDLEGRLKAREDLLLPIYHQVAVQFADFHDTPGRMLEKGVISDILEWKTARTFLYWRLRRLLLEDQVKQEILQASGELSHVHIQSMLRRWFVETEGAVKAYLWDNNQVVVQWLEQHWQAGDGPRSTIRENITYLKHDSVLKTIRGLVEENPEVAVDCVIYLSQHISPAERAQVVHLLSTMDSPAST
Chain of fungal (fACC2) (Q00955 whole entry): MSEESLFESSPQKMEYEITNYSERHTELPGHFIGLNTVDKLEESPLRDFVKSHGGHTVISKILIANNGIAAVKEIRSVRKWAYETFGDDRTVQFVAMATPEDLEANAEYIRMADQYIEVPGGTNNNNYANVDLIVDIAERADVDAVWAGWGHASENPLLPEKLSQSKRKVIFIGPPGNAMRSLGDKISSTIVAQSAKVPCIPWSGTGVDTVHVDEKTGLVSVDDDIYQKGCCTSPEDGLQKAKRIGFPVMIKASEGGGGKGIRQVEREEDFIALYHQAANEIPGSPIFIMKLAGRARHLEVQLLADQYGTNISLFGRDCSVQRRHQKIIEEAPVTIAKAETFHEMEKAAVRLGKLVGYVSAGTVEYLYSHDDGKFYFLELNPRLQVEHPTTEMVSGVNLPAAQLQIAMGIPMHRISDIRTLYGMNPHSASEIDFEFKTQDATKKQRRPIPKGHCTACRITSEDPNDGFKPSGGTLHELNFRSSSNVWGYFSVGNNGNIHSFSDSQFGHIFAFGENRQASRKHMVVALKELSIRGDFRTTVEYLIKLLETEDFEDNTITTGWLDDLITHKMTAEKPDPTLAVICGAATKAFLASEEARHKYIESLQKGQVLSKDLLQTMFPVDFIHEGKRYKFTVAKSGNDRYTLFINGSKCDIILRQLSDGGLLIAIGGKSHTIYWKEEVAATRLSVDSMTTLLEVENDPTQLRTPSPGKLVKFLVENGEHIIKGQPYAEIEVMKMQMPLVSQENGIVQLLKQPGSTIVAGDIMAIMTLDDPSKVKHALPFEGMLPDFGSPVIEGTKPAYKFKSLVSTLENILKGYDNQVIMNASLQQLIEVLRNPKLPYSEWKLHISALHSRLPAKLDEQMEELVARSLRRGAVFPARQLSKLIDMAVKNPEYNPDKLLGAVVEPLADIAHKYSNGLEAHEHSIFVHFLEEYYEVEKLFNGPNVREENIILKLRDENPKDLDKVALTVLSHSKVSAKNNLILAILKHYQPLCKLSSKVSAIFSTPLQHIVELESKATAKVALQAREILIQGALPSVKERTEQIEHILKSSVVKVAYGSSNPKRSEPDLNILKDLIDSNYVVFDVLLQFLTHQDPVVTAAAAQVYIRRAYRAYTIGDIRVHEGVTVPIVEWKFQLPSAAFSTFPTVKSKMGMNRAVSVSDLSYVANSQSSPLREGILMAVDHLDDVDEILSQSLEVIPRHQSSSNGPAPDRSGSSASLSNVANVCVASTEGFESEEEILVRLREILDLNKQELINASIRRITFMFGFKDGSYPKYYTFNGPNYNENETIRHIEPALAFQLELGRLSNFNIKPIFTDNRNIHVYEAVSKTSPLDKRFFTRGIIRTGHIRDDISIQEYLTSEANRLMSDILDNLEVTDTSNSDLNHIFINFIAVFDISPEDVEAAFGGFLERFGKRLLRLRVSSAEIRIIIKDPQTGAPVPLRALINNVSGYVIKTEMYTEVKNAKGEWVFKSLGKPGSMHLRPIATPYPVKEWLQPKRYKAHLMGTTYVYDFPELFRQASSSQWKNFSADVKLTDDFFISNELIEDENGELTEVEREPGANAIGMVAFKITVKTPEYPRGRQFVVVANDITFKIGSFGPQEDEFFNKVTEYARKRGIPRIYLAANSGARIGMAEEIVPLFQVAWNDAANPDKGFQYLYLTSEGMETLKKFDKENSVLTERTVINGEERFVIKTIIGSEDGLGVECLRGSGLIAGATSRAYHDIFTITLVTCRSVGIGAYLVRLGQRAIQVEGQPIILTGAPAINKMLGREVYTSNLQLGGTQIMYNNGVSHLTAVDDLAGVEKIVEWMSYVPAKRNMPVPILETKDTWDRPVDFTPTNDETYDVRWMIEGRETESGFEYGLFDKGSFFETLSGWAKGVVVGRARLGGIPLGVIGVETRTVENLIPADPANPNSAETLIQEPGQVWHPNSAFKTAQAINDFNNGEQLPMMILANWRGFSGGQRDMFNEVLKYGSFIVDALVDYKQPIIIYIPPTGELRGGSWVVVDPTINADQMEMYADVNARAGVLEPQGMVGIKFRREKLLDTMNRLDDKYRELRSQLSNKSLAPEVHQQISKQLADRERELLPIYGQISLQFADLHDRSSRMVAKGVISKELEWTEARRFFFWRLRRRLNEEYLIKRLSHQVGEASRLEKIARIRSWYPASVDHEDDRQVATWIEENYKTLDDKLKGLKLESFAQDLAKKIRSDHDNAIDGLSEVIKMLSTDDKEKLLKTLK

Take `COc1ccc(F)cc1[C@H](Cn1c(=O)n(C(C)(C)C(=O)O)c(=O)c2c(C)c(-n3nccn3)sc21)OC1CCC(=O)CC1` [Compound I-30, (R)-2-(1-(2-(5-fluoro-2-methoxyphenyl)-2-((4-oxocyclo-hexyl)oxy)ethyl)-5-methyl-2,4-dioxo-6-(2H-1,2,3-triazol-2-yl)-1,4-dihydrothieno[2,3-d]pyrimidin-3(2H)-yl)-2-methylpropanoic acid]: the minimal inhibitory concentration (MIC) (commonly the lowest concentration that inhibits growth of the organism) lay in the range of 2.1 to 4 µg/mL (≈ 3.5 to 6.67 µM) in the assay with C. krusei (Table 3a); 1.01 to 2 µg/mL (≈ 1.68 to 3.34 µM) in the assay on C. krusei (Table 3b (additional results)); 2.1 to 4 µg/mL (≈ 3.5 to 6.67 µM) with C. parapsilosis (Table 3a); 2.01 to 4 µg/mL (≈ 3.35 to 6.67 µM) with C. parapsilosis (Table 3b (additional results)); 2.1 to 4 µg/mL (≈ 3.5 to 6.67 µM) in the assay on C. albicans (Table 3a); 1.01 to 2 µg/mL (≈ 1.68 to 3.34 µM) in the assay on C. albicans (Table 3b (additional results)). Also, the IC90 in assay [1] is 2 µg/mL (≈ 3.34 µM); in [2], > 50 µg/mL; with Septoria tritici (St), > 50 µg/mL; in [3], > 50 µg/mL; in the assay on Botrtyis cinerea (Bc) it was 10 µg/mL (≈ 16.7 µM); in assay [4], > 50 µg/mL. Besides, the IC90 is 10 µg/mL (≈ 16.7 µM) in the assay with Rhizoctonia solani (Rs) (setting [5]) and > 50 µg/mL in the assay on Diplodia maydis (Dm). Besides, the IC50 – broadly, the midpoint of a concentration-inhibition curve – lay within 1 to 5 nM at human (hACC2) (Table 2a) and 1 to 5 nM on human (hACC2) (Table 2b, additional results).
For the compound `COCCO[C@@H](Cn1c(=O)n(C(C)(C)C(=O)N2CCCC2)c(=O)c2c(C)c(-n3nccn3)sc21)c1cc(F)ccc1OC` [Compound I-60, (R)-1-(2-(5-fluoro-2-methoxyphenyl)-2-(2-methoxy-ethoxy)ethyl)-5-methyl-3-(2-methyl-1-oxo-1-(pyrrolidin-1-yl)propan-2-yl)-6-(2H-1,2,3-triazol-2-yl)thieno[2,3-d]pyrimidine-2,4(1H,3H)-dione], the IC90 in the assay with Rhizoctonia solani (Rs) (setting [5]) and in the assay with Rhizoctonia solani (Rs) (setting [6]) was > 50 µg/mL in each case. Besides, the IC50 on human (hACC2) (Table 2a) lay in the range of 10 to 40 nM; against human (hACC2) (Table 2b, additional results) it was 10 to 40 nM.
For `COCCOc1ccc(F)cc1[C@H](Cn1c(=O)n(C(C)(C)C(=O)NC(C)C)c(=O)c2c(C)c(-n3nccn3)sc21)OC1CCOCC1` [Compound I-61, (R)-2-(1-(2-(5-fluoro-2-(2-methoxyethoxy)phenyl)-2-((tetrahydro-2H-pyran-4-yl)oxy)ethyl)-5-methyl-2,4-dioxo-6-(2H-1,2,3-triazol-2-yl)-1,4-dihydrothieno[2,3-d]pyrimidin-3(2H)-yl)-N-isopropyl-2-methylpropanamide], the IC90 in the assay with Rhizoctonia solani (Rs) (setting [5]) and in the assay on Rhizoctonia solani (Rs) (setting [6]) was 0.08 µg/mL (≈ 0.119 µM) in each case. Also, the IC50 against human (hACC2) (Table 2a) was 5 to 10 nM; against human (hACC2) (Table 2b, additional results), 5 to 10 nM.
As to `COc1ccccc1[C@@H](O)Cn1c(=O)n(C(C)(C)C(=O)N2CCCC2)c(=O)c2c(C)c(-n3nccn3)sc21` [Compound I-189], the MIC with C. krusei (Table 3b (additional results)), in the assay on C. parapsilosis (Table 3b (additional results)) and with C. albicans (Table 3b (additional results)) was 1.01 to 2 µg/mL (≈ 1.88 to 3.71 µM) each time. Besides, the IC90 in [1] was 10 µg/mL (≈ 18.6 µM); in assay [2], > 50 µg/mL; in the assay on Septoria tritici (St) it was > 50 µg/mL; in assay [3], 10 µg/mL (≈ 18.6 µM); with Botrtyis cinerea (Bc), 10 µg/mL (≈ 18.6 µM); in [4], > 50 µg/mL. Further, the values for the IC90 in the assay on Rhizoctonia solani (Rs) (setting [5]) and with Diplodia maydis (Dm) were 0.08 µg/mL (≈ 0.149 µM) and > 50 µg/mL, respectively. This compound also yielded a half-maximal inhibitory concentration (IC50) against human (hACC2) (Table 2b, additional results) of 10 to 40 nM.
On to `COc1ccc(F)cc1[C@@H](O)Cn1c(=O)n([C@@H](C)C(=O)N2CC=CC2)c(=O)c2c(C)c(-n3nccn3)sc21` [Compound I-193], for which the minimal inhibitory concentration (MIC) in the assay on C. krusei (Table 3b (additional results)), in the assay with C. parapsilosis (Table 3b (additional results)) and in the assay on C. albicans (Table 3b (additional results)) was 1.01 to 2 µg/mL (≈ 1.87 to 3.7 µM) each time. For the same compound, the IC90 in assay [1] is 2 µg/mL (≈ 3.7 µM); in [2], > 50 µg/mL; with Septoria tritici (St), > 50 µg/mL; in assay [3] it was 2 µg/mL (≈ 3.7 µM); with Botrtyis cinerea (Bc), 10 µg/mL (≈ 18.5 µM); in assay [4], 10 µg/mL (≈ 18.5 µM). Moreover, the IC90 is 2 µg/mL (≈ 3.7 µM) in the assay with Rhizoctonia solani (Rs) (setting [5]) and > 50 µg/mL in the assay on Diplodia maydis (Dm). The IC50 against human (hACC2) (Table 2b, additional results) is 5 to 10 nM.
Turning to `COc1ccc(F)cc1[C@@H](Cn1c(=O)n(C(C)(C)C(=O)NC(C)C)c(=O)c2c(C)c(-n3nccn3)sc21)OC(C)=O` [Compound I-259], the IC50 at fungal (fACC2) lay in the range of 1 to 5 nM; against human (hACC2) (Table 2b, additional results), 5 to 10 nM. The IC90 was 0.08 µg/mL (≈ 0.136 µM) in assay [1]; > 50 µg/mL in assay [2]; > 50 µg/mL with Septoria tritici (St); 0.08 µg/mL (≈ 0.136 µM) in [3]; 0.4 µg/mL (≈ 0.682 µM) in the assay on Botrtyis cinerea (Bc); 0.4 µg/mL (≈ 0.682 µM) in [4]. For the same compound, the IC90 was determined as 0.08 µg/mL (≈ 0.136 µM) in the assay with Rhizoctonia solani (Rs) (setting [5]) and 0.4 µg/mL (≈ 0.682 µM) with Diplodia maydis (Dm).

Values taken from patent publication US10800791B2, “Triazole ACC inhibitors and uses thereof” (Gilead Apollo, LLC, priority 2015, dated 2020).
